From patent US20090137499A1, “BENZYLPHENYL GLUCOPYRANOSIDE DERIVATIVE” (priority 2006, published 2009)

Target: T1, human SGLT2 (Homo sapiens, UniProt P31639)
T1 construct: expressed in transfected cells
T1 sequence (P31639 1-672): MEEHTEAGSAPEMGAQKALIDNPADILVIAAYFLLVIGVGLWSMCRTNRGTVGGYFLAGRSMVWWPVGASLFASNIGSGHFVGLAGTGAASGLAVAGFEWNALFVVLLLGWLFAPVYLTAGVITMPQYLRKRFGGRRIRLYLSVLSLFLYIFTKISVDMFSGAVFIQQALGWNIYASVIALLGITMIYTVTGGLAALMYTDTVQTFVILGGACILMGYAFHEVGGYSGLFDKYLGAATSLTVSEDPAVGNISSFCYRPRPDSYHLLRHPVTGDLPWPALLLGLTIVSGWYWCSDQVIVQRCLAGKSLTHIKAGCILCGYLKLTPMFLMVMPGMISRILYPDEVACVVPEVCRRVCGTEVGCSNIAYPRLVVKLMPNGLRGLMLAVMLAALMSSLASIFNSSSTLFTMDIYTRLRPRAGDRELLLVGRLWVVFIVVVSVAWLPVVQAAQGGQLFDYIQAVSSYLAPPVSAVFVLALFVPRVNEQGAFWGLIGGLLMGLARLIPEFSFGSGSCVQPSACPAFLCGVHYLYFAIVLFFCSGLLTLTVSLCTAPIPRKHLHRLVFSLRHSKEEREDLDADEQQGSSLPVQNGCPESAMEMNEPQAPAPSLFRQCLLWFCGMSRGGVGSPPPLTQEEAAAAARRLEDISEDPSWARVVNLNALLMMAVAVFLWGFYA
Experiment: Determination of SGLT2 inhibiting activity using human SGLT2 expressing cell ([14C]-α-methyl-D-glucopyranoside uptake)
Type: cell-based
Settings: HEK-SGLT2 cells, 1 mM [14C]-α-methyl-D-glucopyranoside, 37° C., 30 min
Protocol: Determination of SGLT2 Inhibiting Activity Using Human SGLT2 Expressing Cell
1) Preparation of Vector Expressing Human SGLT2 cDNA in Animal Cell
Amplification was performed by PCR using human SGLT2 cDNA clone (Origene: Clone Number, TC303267; GenBank accession number, NM 003041) as a template. The sense oligonucleotide primer for PCR was 5′-[…]-3′ (Primer 3: SEQ ID NO: 3 in the sequence listing),
and the antisense oligonucleotide primer was 5′-[…]-3′ (Primer 4: SEQ ID NO: 4 in the sequence listing). The PCR product was subjected to agarose electrophoresis, then a target DNA fragment was recovered from a single band corresponding to 2037 bases, digested with restriction enzymes HindIII and XhoI, and introduced into the HindIII/XhoI site of vector pCMV-Script (Stratagene) to obtain SGLT2 expressing plasmid pCMV-SGLT2. A HindIII/XhoI fragment was excised from pCMV-SGLT2 and introduced into the BamHI/XhoI site of pENTR1A (Gateway, Invitrogen) to prepare pENTR-SGLT2. Retrovirus vector pLPCX (Clontech) into which Gateway Vector Conversion System Cassette A (Invitrogen) was introduced was used as the destination plasmid to prepare SGLT2 expressing retrovirus vector pLPCX-SGLT2.
2) Establishment of Human SGLT2 Expressing Cell
The retrovirus pLPCX-SGLT2 obtained in 1) was transfected into integrin αvβ3 expressing HEK-293 cells, the cells were treated with antibiotic G418 (brand name, Geneticin: Invitrogen) and puromycin (Clontech) to obtain HEK-SGLT2 cells stably expressing the target vector having resistance. The stably expressing cells were cultured and maintained in DMEM medium containing […] G418, […] puromycin, 3 mM KGT-1075, and 10% FBS.
3) Determination of SGLT2 Inhibiting Activity
HEK-SGLT2 cells were suspended at a density of 10^6 cells/mL in DMEM medium containing 250 mg/mil G418, 1 mg/ml puromycin, and 10% FBS, and 100 μL was seeded in each well of a type 1 collagen-coated 96-well culture plate (Corning). On the following day, the medium was replaced with a sugar uptake buffer (10 mM HEPES [pH 7.5], 5 mM Tris-HCl [pH 7.5], 140 mM NaCl, 2 mM KCl, 1 mM CaCl2, 1 mM MgCl2), and the cells were cultured with 1 mM [^14C]-α-methyl-D-glucopyranoside (0.1 mCi) and a test compound at 37° C. for 30 min, and then washed 3 times with a washing buffer (10 mM HEPES (pH 7.5), 5 mM Tris-HCl (pH 7.5), 140 mM choline chloride, 2 mM KCl, 1 mM CaCl2, 1 mM MgCl2). 100 μL of liquid scintillation cocktail (brand name, Supermix: Perkin-Elmer) was added to each well of the 96-well plate and stirred for 10 min, and then radioactivity was determined with micro β (Perkin-Elmer), a type of liquid scintillation counter. The value obtained by deducting the radioactivity in the presence of an excess amount of an SGLT2 inhibiting compound as the background from each measured value was taken as the sugar uptake activity, the inhibition rate (%) was calculated from the control sugar uptake activity obtained without using a test compound and the sugar uptake activity obtained using a test compound having a predetermined concentration, and the concentrations of the test compound at which the sugar uptake activity was inhibited by 50% were assessed.

SMILES	IC50 [nM]
CSc1ccc(Cc2ccc(CO)cc2O[C@@H]2O[C@H]([C@@H](C)O)[C@@H](O)[C@H](O)[C@H]2O)cc1 [Example 66, 5-Hydroxymethyl-2-(4-methylsulfanylbenzyl)phenyl 7-deoxy-D-glycero-β-D-gluco-heptopyranoside]	23
COc1ccc(Cc2c(C)cc(C)cc2O[C@@H]2O[C@H]([C@@H](C)O)[C@@H](O)[C@H](O)[C@H]2O)cc1F [Example 69, 2-(3-Fluoro-4-methoxybenzyl)-3,5-dimethylphenyl 7-deoxy-D-glycero-β-D-gluco-heptopyranoside]	40
C[C@@H](O)[C@H]1O[C@@H](Oc2cc(CO)ccc2Cc2ccc(CCCO)cc2)[C@H](O)[C@@H](O)[C@@H]1O [Example 68, 5-Hydroxymethyl-2-[4-(3-hydroxypropyl)benzyl]phenyl 7-deoxy-D-glycero-β-D-gluco-heptopyranoside]	12
COc1ccc(Cc2c(Cl)cc(CO)cc2O[C@@H]2O[C@H]([C@@H](C)O)[C@@H](O)[C@H](O)[C@H]2O)cc1 [Example 44, 3-Chloro-5-hydroxymethyl-2-(4-methoxybenzyl)phenyl 7-deoxy-D-glycero-β-D-gluco-heptopyranoside]	10
CCOc1ccc(Cc2c(F)cc(CO)cc2O[C@@H]2O[C@H]([C@@H](C)O)[C@@H](O)[C@H](O)[C@H]2O)cc1 [Example 46, 2-(4-Ethoxybenzyl)-3-fluoro-5-hydroxymethyl-phenyl 7-deoxy-D-glycero-β-D-gluco-heptopyranoside]	16
CC(C)Oc1ccc(Cc2c(F)cc(CO)cc2O[C@@H]2O[C@H]([C@@H](C)O)[C@@H](O)[C@H](O)[C@H]2O)cc1 [Example 75, 3-Fluoro-5-hydroxymethyl-2-(4-isopropoxybenzyl)phenyl 7-deoxy-D-glycero-β-D-gluco-heptopyranoside]	38
C[C@@H](O)[C@H]1O[C@@H](Oc2cc(CO)ccc2Cc2ccc(C3CC3)cc2)[C@H](O)[C@@H](O)[C@@H]1O [Example 62, 2-(4-Cyclopropylbenzyl)-5-hydroxymethylphenyl 7-deoxy-D-glycero-β-D-gluco-heptopyranoside]	32
Cc1cc(C)c(Cc2ccc(CCO)cc2)c(O[C@@H]2O[C@H]([C@@H](C)O)[C@@H](O)[C@H](O)[C@H]2O)c1 [Example 70, 2-[4-(2-Hydroxyethyl)benzyl]-3,5-dimethylphenyl 7-deoxy-D-glycero-β-D-gluco-heptopyranoside]	40
C[C@@H](O)[C@H]1O[C@@H](Oc2cc(CO)ccc2Cc2ccc(OC3CC3)cc2)[C@H](O)[C@@H](O)[C@@H]1O [Example 60, 2-(4-Cyclopropyloxybenzyl)-5-hydroxymethylphenyl 7-deoxy-D-glycero-β-D-gluco-heptopyranoside]	12
COc1ccc(Cc2c(F)cc(CO)cc2O[C@@H]2O[C@H]([C@@H](C)O)[C@@H](O)[C@H](O)[C@H]2O)cc1 [Example 84, 3-Fluoro-5-hydroxymethyl-2-(4-methoxybenzyl)phenyl 7-deoxy-D-glycero-β-D-gluco-heptopyranoside]	6.3
C[C@@H](O)[C@H]1O[C@@H](Oc2cc(CO)cc(Cl)c2Cc2ccc(OC3CC3)cc2)[C@H](O)[C@@H](O)[C@@H]1O [Example 95, 3-Chloro-2-(4-cyclopropoxybenzyl)-5-hydroxymethyl-phenyl 7-deoxy-D-glycero-β-D-gluco-heptopyranoside]	49
